Results as given in article PMC9866191, “Novel 9-Benzylaminoacridine Derivatives as Dual Inhibitors of Phosphodiesterase 5 and Topoisomerase II for the Treatment of Colon Cancer” (Molecules, 2023).

Columns and labels:
[1] = system: SF-268; assay: NCI-60 one-dose screen; format: cell-based; conditions: Homo sapiens; SF-268, CNS Cancer panel; single dose 10^−5 M; read-out: Growth inhibition %
[2] = system: LOX IMVI; assay: NCI-60 one-dose screen; format: cell-based; conditions: Homo sapiens, Melanoma panel, single dose 10^−5 M, read-out: Growth inhibition %
[3] = biological target: T1, PDE5A (Homo sapiens, UniProt O76074); assay: Phosphodiesterase 5 HTRF cGMP assay; format: biochemical; conditions: for IC50: means ± S.D. (n = 4), read-out: PDE5 IC50; for inhibition at 10 µM: read-out: PDE5 % Inhibition at 10 μM
T1 construct: purchased BPS Bioscience, San Diego, CA, USA
Method: All the synthesized acridine derivatives were tested for their in vitro ability to inhibit PDE5A at a screening dose of 10 µM.
The enzyme activities of phosphodiesterase 5 (PDE5) were measured using an HTRF cGMP assay kit (Cisbio, Codolet, France). […] Afterward, the HTRF reagent (cGMP-d2 and anti-cGMP-cryptate) was added for 1 h at 25 °C, and PDE activity was assayed on an HTRF reader (Tecan Infinite F200 Pro).

[4] = system: SK-MEL-28; assay: NCI-60 one-dose screen; format: cell-based; conditions: Homo sapiens; SK-MEL-28, Melanoma panel; single dose 10^−5 M; read-out: Growth inhibition %
Method: (§1) The newly synthesized compounds were screened for their in vitro anticancer activity at the Developmental Therapeutic Program (DTP) of the National Cancer Institute (NCI). The screening involved a panel of 60 human tumor cell lines consisting of 9 tissue types to screen for potential anti-cancer agents. The primary screening of submitted compounds was performed by testing a single dose (10^−5 M) in the full NCI-60 panel. The detailed % inhibition by the tested compounds against the 60 cell lines is shown in Tables S1–S3 in the Supporting Information.

[5] = system: HCT-15; assay: NCI-60 one-dose screen; format: cell-based; conditions: Homo sapiens; HCT-15, Colon Cancer panel; single dose 10^−5 M; read-out: Growth inhibition %
Method: as §1

[6] = system: OVCAR-8; assay: NCI-60 one-dose screen; format: cell-based; conditions: Homo sapiens; OVCAR-8, Ovarian Cancer panel; single dose 10^−5 M; read-out: Growth inhibition %
Method: as §1

[7] = system: KM12; assay: NCI-60 one-dose screen; format: cell-based; conditions: Homo sapiens; KM12, Colon Cancer panel; single dose 10^−5 M; read-out: Growth inhibition %
Method: as §1

[8] = system: TK-10; assay: NCI-60 one-dose screen; format: cell-based; conditions: Homo sapiens; TK-10, Renal Cancer panel; single dose 10^−5 M; read-out: Growth inhibition %
Method: as §1

[9] = system: K-562; assay: NCI-60 one-dose screen; format: cell-based; conditions: Homo sapiens, K562; K-562, Leukemia panel; single dose 10^−5 M; read-out: Growth inhibition %
Method: as §1

[10] = system: MDA-MB-231/ATCC; assay: NCI-60 one-dose screen; format: cell-based; conditions: Homo sapiens, Breast Cancer panel, single dose 10^−5 M, read-out: Growth inhibition %
Method: as §1

[11] = system: SNB-19; assay: NCI-60 one-dose screen; format: cell-based; conditions: Homo sapiens; SNB-19, CNS Cancer panel; single dose 10^−5 M; read-out: Growth inhibition %
Method: as §1

[12] = system: SF-539; assay: NCI-60 one-dose screen; format: cell-based; conditions: Homo sapiens; SF-539, CNS Cancer panel; single dose 10^−5 M; read-out: Growth inhibition %
Method: as §1

[13] = system: RXF 393; assay: NCI-60 one-dose screen; format: cell-based; conditions: Homo sapiens; RXF 393, Renal Cancer panel; single dose 10^−5 M; read-out: Growth inhibition %
Method: as §1

[14] = system: NCI-H226; assay: NCI-60 one-dose screen; format: cell-based; conditions: Homo sapiens; NCI-H226, Non-small cell lung panel; single dose 10^−5 M; read-out: Growth inhibition %
Method: as §1

[15] = system: NCI-H460; assay: NCI-60 one-dose screen; format: cell-based; conditions: Homo sapiens; NCI-H460, Non-small cell lung panel; single dose 10^−5 M; read-out: Growth inhibition %
Method: as §1

[16] = system: OVCAR-5; assay: NCI-60 one-dose screen; format: cell-based; conditions: Homo sapiens; OVCAR-5, Ovarian Cancer panel; single dose 10^−5 M; read-out: Growth inhibition %
Method: as §1

[17] = system: OVCAR-3; assay: NCI-60 one-dose screen; format: cell-based; conditions: Homo sapiens; OVCAR-3, Ovarian Cancer panel; single dose 10^−5 M; read-out: Growth inhibition %
Method: as §1

[18] = system: SK-OV-3; assay: NCI-60 one-dose screen; format: cell-based; conditions: Homo sapiens; SK-OV-3, Ovarian Cancer panel; single dose 10^−5 M; read-out: Growth inhibition %
Method: as §1

[19] = system: RPMI-8226; assay: NCI-60 one-dose screen; format: cell-based; conditions: Homo sapiens; RPMI-8226, Leukemia panel; single dose 10^−5 M; read-out: Growth inhibition %
Method: as §1

[20] = system: UO-31; assay: NCI-60 one-dose screen; format: cell-based; conditions: Homo sapiens; UO-31, Renal Cancer panel; single dose 10^−5 M; read-out: Growth inhibition %
Method: as §1

[21] = system: MOLT-4; assay: NCI-60 one-dose screen; format: cell-based; conditions: Homo sapiens; MOLT-4, Leukemia panel; single dose 10^−5 M; read-out: Growth inhibition %
Method: as §1

[22] = system: A498; assay: NCI-60 one-dose screen; format: cell-based; conditions: Homo sapiens; A498, Renal Cancer panel; single dose 10^−5 M; read-out: Growth inhibition %
Method: as §1

[23] = system: MDA-MB-435; assay: NCI-60 one-dose screen; format: cell-based; conditions: Homo sapiens; MDA-MB-435, Melanoma panel; single dose 10^−5 M; read-out: Growth inhibition %
Method: as §1

[24] = system: CCRF-CEM; assay: NCI-60 one-dose screen; format: cell-based; conditions: Homo sapiens, Leukemia panel, single dose 10^−5 M, read-out: Growth inhibition %
[25] = system: IGROV1; assay: NCI-60 one-dose screen; format: cell-based; conditions: Homo sapiens, IGROV-1; IGROV1, Ovarian Cancer panel; single dose 10^−5 M; read-out: Growth inhibition %
[26] = system: CCD-966SK; assay: MTT cell proliferation assay, CCD-966SK; conditions: CCD966SK skin fibroblast; 10 µM; 72 h MTT
[27] = system: panel of 60 human tumor cell lines; assay: NCI 60-cell line one-dose screen (mean); format: cell-based; conditions: mean of the 60 cell lines, single dose 10^−5 M, read-out: Mean % Growth Inhibition
Method: as §1

SMILES	inhibition at 10 µM [1] [%]	inhibition at 10 µM [2] [%]	IC50 [3] [µM]	inhibition at 10 µM [3] [%]	inhibition at 10 µM [4] [%]	inhibition at 10 µM [5] [%]	inhibition at 10 µM [6] [%]	inhibition at 10 µM [7] [%]	inhibition at 10 µM [8] [%]	inhibition at 10 µM [9] [%]	inhibition at 10 µM [10] [%]	inhibition at 10 µM [11] [%]	inhibition at 10 µM [12] [%]	inhibition at 10 µM [13] [%]	inhibition at 10 µM [14] [%]	inhibition at 10 µM [15] [%]	inhibition at 10 µM [16] [%]	inhibition at 10 µM [17] [%]	inhibition at 10 µM [18] [%]	inhibition at 10 µM [19] [%]	also measured
COc1ccc(CNc2c3ccccc3nc3ccccc23)cc1OC [Compound 18, Acridin-9-yl-(3,4-dimethoxybenzyl)-amine]	60.4	104	9.77 ± 3.11	51.2 ± 5.26	64.8	89.8	76.2	68.4	67.7	91.2	80.6	78.2	84.7	96.4	72	93.8	72.5	56.3	58.9	99.4	inhibition at 10 µM [20]: 87.9%; inhibition at 10 µM [21]: 89.4%; inhibition at 10 µM [22]: 112%; inhibition at 10 µM [23]: 70.6%; inhibition at 10 µM [24]: 69.5%; inhibition at 10 µM [25]: 89.1%; % Inhibition at 10 µM [26]: 32.27 ± 0.58%; inhibition at 10 µM [27]: 81.6%
COc1ccc(CNc2c3ccccc3nc3ccccc23)cc1F [Compound 19, Acridin-9-yl-(3-fluoro-4-methoxybenzyl)-amine]	50.9	98.8	3.39 ± 1.03	79.2 ± 8.48	53.3	89	70.6	67.2	63.9	95.2	70.8	72	81.8	88.9	57	93.7	63.1	47.8	52	106	inhibition at 10 µM [20]: 86.5%; inhibition at 10 µM [21]: 91.1%; inhibition at 10 µM [22]: 106%; inhibition at 10 µM [23]: 92.4%; inhibition at 10 µM [24]: 70.4%; inhibition at 10 µM [25]: 84.2%; % Inhibition at 10 µM [26]: 41.77 ± 0.99%; inhibition at 10 µM [27]: 76.2%
COc1ccc(CNc2c3ccccc3nc3ccc(OC)cc23)cc1 [Compound 27, (2-Methoxyacridin-9-yl)-(4-methoxybenzyl)-amine]	59.8	175	1.87 ± 1.03	88.8 ± 4.84	58.7	94.7	74.6	72.4	66.4	99.7	76.4	77.3	91.5	103	66.2	93.5	69.3	59.6	52.9	148	inhibition at 10 µM [20]: 93.8%; inhibition at 10 µM [21]: 100%; inhibition at 10 µM [22]: 106%; inhibition at 10 µM [23]: 81%; inhibition at 10 µM [24]: 80.6%; inhibition at 10 µM [25]: 88.8%; % Inhibition at 10 µM [26]: 19.04 ± 3.94%; inhibition at 10 µM [27]: 87.9%
